Experimental data: patent US6737383B1, “Herbicidal oxadiazolidines” (priority 1999, dated 2004)

Tests used:
blackgrass = assay: Test B pre/postemergence blackgrass; format: in vivo, Alopecurus myosuroides
How it was run: (§1)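 Herbicidal effect was estimated by eye on a ten-point control scale after plants spent twelve to sixteen days in a greenhouse following soil or foliar treatment. Foliar sprays targeted plants at one to four leaves; all doses were formulated in a non-phytotoxic solvent with surfactant.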

purple nutsedge = assay: Test B pre/postemergence purple nutsedge; format: in vivo, Cyperus rotundus
How it was run: as §1

giant foxtail = assay: Test B pre/postemergence giant foxtail; format: in vivo, Setaria faberii
How it was run: as §1

corn = assay: Test B pre/postemergence corn; format: in vivo, Zea mays
How it was run: as §1

morningglory = assay: Test B pre/postemergence morningglory; format: in vivo, Ipomoea hederacea
How it was run: as §1

wheat = assay: Test B pre/postemergence wheat; format: in vivo, Triticum aestivum
How it was run: as §1

bedstraw = assay: Test B pre/postemergence bedstraw; format: in vivo, Galium aparine; settings: Preemergence
How it was run: as §1

sugar beet = assay: Test B pre/postemergence sugar beet; format: in vivo, Beta vulgaris
How it was run: as §1

pigweed = assay: Test B pre/postemergence pigweed; format: in vivo, Amaranthus retroflexus
How it was run: as §1

crabgrass = assay: Test B pre/postemergence crabgrass; format: in vivo, Digitaria sanguinalis
How it was run: as §1

velvetleaf = assay: Test B pre/postemergence velvetleaf; format: in vivo, Abutilon theophrasti
How it was run: as §1

surinam grass = assay: Test B pre/postemergence surinam grass; format: in vivo, Brachiaria decumbens
How it was run: as §1

rape = assay: Test B pre/postemergence rape; format: in vivo, Brassica napus
How it was run: as §1

soybean = assay: Test B pre/postemergence soybean; format: in vivo, Glycine max
How it was run: as §1

cocklebur = assay: Test B pre/postemergence cocklebur; format: in vivo, Xanthium strumarium
How it was run: as §1

wild oat = assay: Test B pre/postemergence wild oat; format: in vivo, Avena fatua
How it was run: as §1

[1] = Postemergence, Rate 62 g/ha, scale 0 to 10, 0 is no effect, 10 is complete control
[2] = Postemergence, Rate 125 g/ha, scale of 0 to 10 where 0 is no effect and 10 is complete control
[3] = Preemergence, Rate 125 g/ha, scale of 0 to 10 where 0 is no effect and 10 is complete control
[4] = Preemergence, Rate 250 g/ha, scale 0 (no effect) to 10 (complete control)
[5] = Rate 62 g/ha, Preemergence, scale 0 to 10
[6] = Rate 250 g/ha, Postemergence, scale 0 to 10, 0 is no effect, 10 is complete control
[7] = Rate 500 g/ha, Postemergence, scale 0 to 10, 0 is no effect, 10 is complete control
[8] = Rate 500 g/ha, Preemergence, scale 0 to 10 (0 no effect, 10 complete control)

SMILES: COC1CCC(Cn2c(=O)on(C(=O)N(c3ccc(Cl)cc3)C(C)C)c2=O)=NO1 (stereo not drawn) [Compound 760]
- Plant response rating, Blackgrass (blackgrass; [1]): 0
- Blackgrass plant response rating (blackgrass; [2]): 0
- Plant response rating, Blackgrass (blackgrass; [3]): 4
- Blackgrass plant response rating (blackgrass; [4]): 6
- Blackgrass plant response rating (blackgrass; [5]): 0
- Blackgrass plant response rating (blackgrass; [6]): 0
- Blackgrass plant response rating (blackgrass; [7]): 3
- Blackgrass plant response rating (blackgrass; [8]): 9
- Plant response rating, Nutsedge (purple nutsedge; [1]): 0
- Nutsedge plant response rating (purple nutsedge; [2]): 0
- Plant response rating, Nutsedge (purple nutsedge; [3]): 0
- Nutsedge plant response rating (purple nutsedge; [4]): 0
- Nutsedge plant response rating (purple nutsedge; [5]): 0
- Nutsedge plant response rating (purple nutsedge; [6]): 0
- Nutsedge plant response rating (purple nutsedge; [7]): 0
- Nutsedge plant response rating (purple nutsedge; [8]): 0
- Plant response rating, Giant foxtail (giant foxtail; [1]): 0
- Giant foxtail plant response rating (giant foxtail; [2]): 7
- Plant response rating, Giant foxtail (giant foxtail; [3]): 9
- Giant foxtail plant response rating (giant foxtail; [4]): 10
- Giant foxtail plant response rating (giant foxtail; [5]): 8
- Giant foxtail plant response rating (giant foxtail; [6]): 7
- Giant foxtail plant response rating (giant foxtail; [7]): 7
- Giant foxtail plant response rating (giant foxtail; [8]): 10
- Plant response rating, Corn (corn; [1]): 0
- Corn plant response rating (corn; [2]): 0
- Plant response rating, Corn (corn; [3]): 0
- Corn plant response rating (corn; [4]): 0
- Corn plant response rating (corn; [5]): 0
- Corn plant response rating (corn; [6]): 1
- Corn plant response rating (corn; [7]): 1
- Corn plant response rating (corn; [8]): 4
- Plant response rating, Morningglory (morningglory; [1]): 3
- Morningglory plant response rating (morningglory; [2]): 3
- Plant response rating, Morningglory (morningglory; [3]): 0
- Morningglory plant response rating (morningglory; [4]): 0
- Morningglory plant response rating (morningglory; [5]): 0
- Morningglory plant response rating (morningglory; [6]): 3
- Morningglory plant response rating (morningglory; [7]): 3
- Morningglory plant response rating (morningglory; [8]): 0
- Plant response rating, Wheat (wheat; [1]): 0
- Plant response rating, Wheat (wheat; [3]): 0
- Wheat plant response rating (wheat; [4]): 0
- Wheat plant response rating (wheat; [5]): 0
- Wheat plant response rating (wheat; [6]): 0
- Wheat plant response rating (wheat; [7]): 0
- Wheat plant response rating (wheat; [8]): 3
- Plant response rating, Bedstraw (bedstraw; Rate 125 g/ha, scale of 0 to 10 where 0 is no effect and 10 is complete control): 0
- Bedstraw plant response rating (bedstraw; Rate 250 g/ha, scale 0 (no effect) to 10 (complete control)): 0
- Bedstraw plant response rating (bedstraw; Rate 62 g/ha, scale 0 to 10): 0
- Bedstraw plant response rating (bedstraw; Rate 500 g/ha, scale 0 to 10 (0 no effect, 10 complete control)): 6
- Plant response rating, Sugarbeets (sugar beet; [1]): 0
- Plant response rating, Sugarbeets (sugar beet; [3]): 3
- Sugarbeets plant response rating (sugar beet; [4]): 3
- Sugarbeets plant response rating (sugar beet; [5]): 3
- Sugarbeets plant response rating (sugar beet; [6]): 0
- Sugarbeets plant response rating (sugar beet; [7]): 0
- Sugarbeets plant response rating (sugar beet; [8]): 6
- Plant response rating, Redroot pigweed (pigweed; [1]): 0
- Redroot pigweed plant response rating (pigweed; [2]): 0
- Plant response rating, Redroot pigweed (pigweed; [3]): 7
- Redroot pigweed plant response rating (pigweed; [4]): 9
- Redroot pigweed plant response rating (pigweed; [5]): 7
- Redroot pigweed plant response rating (pigweed; [6]): 2
- Redroot pigweed plant response rating (pigweed; [7]): 3
- Redroot pigweed plant response rating (pigweed; [8]): 9
- Plant response rating, Crabgrass (crabgrass; [1]): 5
- Crabgrass plant response rating (crabgrass; [2]): 6
- Plant response rating, Crabgrass (crabgrass; [3]): 7
- Crabgrass plant response rating (crabgrass; [4]): 10
- Crabgrass plant response rating (crabgrass; [5]): 2
- Crabgrass plant response rating (crabgrass; [6]): 9
- Crabgrass plant response rating (crabgrass; [8]): 10
- Plant response rating, Velvetleaf (velvetleaf; [1]): 0
- Plant response rating, Velvetleaf (velvetleaf; [3]): 0
- Velvetleaf plant response rating (velvetleaf; [4]): 0
- Velvetleaf plant response rating (velvetleaf; [5]): 0
- Velvetleaf plant response rating (velvetleaf; [6]): 0
- Velvetleaf plant response rating (velvetleaf; [7]): 3
- Velvetleaf plant response rating (velvetleaf; [8]): 0
- Plant response rating, B. signalgrass (surinam grass; [1]): 0
- B. signalgrass plant response rating (surinam grass; [2]): 0
- B. signalgrass plant response rating (surinam grass; Preemergence, Rate 62 g/ha, scale of 0 to 10 where 0 is no effect and 10 is complete control): 2
- Plant response rating, B. signalgrass (surinam grass; [3]): 3
- B. signalgrass plant response rating (surinam grass; [4]): 10
- B. signalgrass plant response rating (surinam grass; [6]): 0
- B. signalgrass plant response rating (surinam grass; [7]): 5
- B. signalgrass plant response rating (surinam grass; [8]): 10
- Plant response rating, Rape (rape; [1]): 2
- Rape plant response rating (rape; [2]): 1
- Plant response rating, Rape (rape; [3]): 0
- Rape plant response rating (rape; [4]): 2
- Rape plant response rating (rape; [5]): 0
- Rape plant response rating (rape; [6]): 2
- Rape plant response rating (rape; [7]): 5
- Rape plant response rating (rape; [8]): 5
- Plant response rating, Soybean (soybean; [1]): 4
- Plant response rating, Soybean (soybean; [3]): 0
- Soybean plant response rating (soybean; [4]): 0
- Soybean plant response rating (soybean; [5]): 0
- Soybean plant response rating (soybean; [6]): 4
- Soybean plant response rating (soybean; [7]): 5
- Soybean plant response rating (soybean; [8]): 0
- Plant response rating, Cocklebur (cocklebur; [1]): 0
- Cocklebur plant response rating (cocklebur; [2]): 0
- Cocklebur plant response rating (cocklebur; [4]): 0
- Cocklebur plant response rating (cocklebur; [5]): 0
- Cocklebur plant response rating (cocklebur; [6]): 0
- Cocklebur plant response rating (cocklebur; [7]): 1
- Cocklebur plant response rating (cocklebur; [8]): 0
- Plant response rating, Wild oats (wild oat; [1]): 0
- Plant response rating, Wild oats (wild oat; [3]): 0
- Wild oats plant response rating (wild oat; [4]): 2
- Wild oats plant response rating (wild oat; [5]): 0
- Wild oats plant response rating (wild oat; [6]): 0
- Wild oats plant response rating (wild oat; [7]): 4
- Wild oats plant response rating (wild oat; [8]): 6
